Measured values as given in article PMC6814738, “Bacterial MgrB peptide activates chemoreceptor Fpr3 in mouse accessory olfactory system and drives avoidance behaviour” (Nature Communications, 2019).
Values joined by “and” are separate entries in the source; they are usually repeats but may differ in a detail not shown here. Identical values can stand only once. Like-named read-outs stand apart in the source and are kept apart here.

Legend:
[1] = test system: male mice; experiment: Behavioural avoidance test, FEU vs. FEU supplemented with peptide (Fig. 8, Supplementary Fig. 4); type: in vivo, mouse; conditions: for avoidance, in words: 100 µM, B6 mice (f-MKKFRW also ΔFpr3-lacZ+/+, cGαo+/−, Trpc2+/−); for avoidance index: 100 µM in FEU, mean ± s.e.m.; for Preference (%): group mean value, FEU vs FEU supplemented with 100 µM peptide
Description: These assays were adapted from behavioural procedures described previously[14],[60]. We tested avoidance by giving adult male mice (8–14 week old) of various genotypes a choice to freely investigate two types of chemical stimuli: FEU vs. FEU supplemented with a peptide. Mice were sexually naïve and not exposed to the test stimuli prior to the testing day. Mice were habituated for three days (40 min each day) to clean filter papers (2.5 cm diameter), each deposited in a sterile plastic culture dish and placed in opposite corners of the test cage (30 × 12 cm). After the third habituation period, the test subject was transferred into a new cage containing fresh filter papers/dishes with either of the two test stimuli. One filter paper was impregnated with 45 µl of fresh urine pooled from two sexually naïve female B6 mice (8–16 weeks old) in oestrus (FEU, female oestrous urine) and 5 µl physiological solution containing (in mM): NaCl, 130; KCl, 5; Na-Hepes, 10; CaCl2, 2; glucose, 10; pH = 7.4. For testing the effects of specific peptides, the second filter paper was impregnated with FEU supplemented with a given peptide (100 or 50 µM final concentration, dissolved in physiological solution). Direct physical contact was allowed. Behaviour was recorded for 10 min from the top of the cage. Mice were exposed only once to a given peptide solution, and were exposed to only one peptide stimulus per day. Stimuli were presented in randomised order. […] This investigative behaviour was quantified as the time spent in close contact with each filter paper, scored manually by an observer blind to the experimental conditions using Behavioural Observation Research Interactive Software (BORIS)[85]. Contact time was measured as the time during which the nose crossed the border of a petri dish containing impregnated filter paper. An avoidance index was calculated as (TP — aTU)/(aTP + aTU), with TP as the time an individual mouse investigated a FEU-peptide mixture, aTP as the average time of all tested mice investigating this stimulus and aTU as the average time of all mice investigating FEU without added peptide. Negative values represent avoidance and positive values represent attraction. For analysing investigation of sick conspecifics, B6 mice were injected either with LPS or PBS as described above. In total, 4 h post injection, these mice were anaesthetised with 165 mg/kg ketamine (Pharmacia GmbH, Berlin, Germany) and 11 mg/kg xylazine (Bayer Health Care, Leverkusen, Germany) and then used in behavioural tests.

[2] = test system: mouse Fpr3; conditions: cited from earlier work
Description: We estimate the fraction of knobs responding to f-MKKFRW as ~0.15%, which is similar to the fraction of cells in the VNE that express Fpr3[30]. Strikingly, the sensitivity and sequence-selectivity profile of these responses was nearly identical to the results that we obtained for heterologously expressed Fpr3. The detection threshold of native VSNs for f-MKKFRW was ≤0.1 µM (Fig. 4f), virtually the same as for Fpr3-expres ... || Given the importance of the olfactory system in a variety of behavioural avoidance and defence mechanisms[14],[62],[63], we reasoned that in vivo detection of MgrB peptide may evoke an avoidance reaction in mice. We devised a behavioural assay[14],[60] in order to determine whether direct nasal contact with MgrB peptide evokes unconditioned, innate avoidance (Fig. 8a and Methods). […] (Fig ... || We used custom-made peptides with a length of 6–21 amino acids to screen for agonists. Sequences of fMet peptides were designed according to motifs present at the N-termini of 15,125 specific bacterial proteins as annotated in UniProt. Peptides were chemically synthesised, purified, and verified by mass spectroscopy (MALDI-TOF) by commercial suppliers. Purity of all peptides was >95%. Source, sequence and purity of each peptide are listed in Supplementary Data 1. Lyophilised peptides were routinely dissolved in the Ca^2+ imaging assay buffer C1 (130 mM NaCl, 10 mM HEPES, 5 mM KCl, 2 mM CaCl2, ...

[3] = test system: vomeronasal sensory neurons (VSNs); experiment: VNO whole-mount en face confocal Ca2+ imaging of VSN dendritic knobs (Fig. 4, 5); type: cell-based, mouse; design: key to Ca2+ response of f-MKKFRW-responsive VSN knobs / Fpeak: normalised to knob resting fluorescence F0 before stimulation; conditions: for Fpeak / Ca2+ response of f-MKKFRW-responsive VSN knobs: Fig. 4h; for Fpeak: mean of individual knobs, n = 103 f-MKKFRW, 21 f-MKKFRWVVL, 68 MKKFRW, 26 f-MGFFIS, 63 PUM; for Ca2+ responses in VSNs, in words: VNE of adult B6 mice, f-MKKFRW 1 µM; for Ca2+ response of f-MKKFRW-responsive VSN knobs: adult B6 mice, mean ± s.d., N = 103 (f-MKKFRW), 21 (f-MKKFRWVVL), 68 (MKKFRW), 26 (f-MGFFIS), 63 (PUM)
From the text: Mice (6–20 week old, either sex) were euthanized by CO2 inhalation according to institutional guidelines. After decapitation, the skin was removed from the skull, the mandible was cut off and the cranium was opened by a sagittal cut, 1–2-mm right-lateral in parallel to the midline. The palate and the right incisor were removed and the hemisected skull was mounted in low-melting agarose (4%). The bony capsule of the VNO was opened with fine forceps and the nonsensory epithelium was stripped off. Tissue and cell debris were gently washed off, and the en face preparation was superfused with physiological S1 solution (120 mM NaCl, 25 mM NaHCO3, 5 mM KCl, 1 mM MgSO4, 1 mM CaCl2, 10 mM glucose, 5 mM BES, pH 7.3) saturated with carbogen (95% O2, 5% CO2).
Loading of the VNE with Rhod-2/AM (5–15 µM, 1 h) was performed in S1 solution under carbogen atmosphere at RT. Images were taken with an upright confocal laser scanning microscope (Leica TCS SP5 II, 20x water immersion objective HCX APO L20x/1.0w) equipped with Ar and He/Ne lasers. GFP was excited at 488 nm, Venus at 514 nm and Rhod-2 at 543 nm. Emission was measured at 490–520 nm (GFP), 520–600 nm (Venus) and 560–680 nm (Rhod-2). To minimise interference between Venus and Rhod-2 fluorescence, images were taken sequentially (sample interval per image, 3–4 s). Peptide stimuli were applied to the VNE surface with a local perfusion system which, when positioned close to the anterior end of the VNO, produced a continuous solution stream from rostral to caudal along the VNO axis. Data analysis was performed with the open source software ImageJ (NIH). Ca^2+ responses of individual dendritic knobs were normalised to the knob resting fluorescence level obtained before stimulation (ratio Fx/F0, Fx = actual fluorescence; F0 = mean fluorescence of 3–5 images before ligand application). Mapping was performed by superimposing Ca^2+ peak images onto images showing intrinsic fluorescence for specific markers.
Predator urine mix was composed of urine from mountain lion, coyote, bobcat, fox and marten (at equal volume ratios), purchased from Predatorpee (USA) and Kieferle (Germany). The fMet peptides were as described above. Stimuli were applied in S2 solution (140 mM NaCl, 5 mM KCl, 10 mM HEPES, 1 mM CaCl2, 1 mM MgCl2, 10 mM glucose, pH 7.3 with NaOH).

[4] = B6, n = 10-11, negative = avoidance

In the case of f-MFQQNK [reference compound], the “avoidance, in words” value [1] is listed as “failed to elicit avoidance”, the avoidance index [1, 4] is listed as 0.04 ± 0.09 and the “activation of heterologously expressed Fpr3, in words” value [2] is listed as “failed to activate heterologously expressed Fpr3”.

For MKKFRW [non-formylated MKKFRW peptide], the Fpeak [3] was 0.00, the “Ca2+ responses in VSNs, in words” value [3] was “failed to evoke Ca^2+ responses in VSNs” and the “Ca2+ response of f-MKKFRW-responsive VSN knobs” value [3] was 0.00 ± 0.00. The “avoidance, in words” value [1] was “failed to elicit avoidance”, the avoidance index [1, 4] was 0.07 ± 0.05 and the “Preference Index” value ([1]; Fig. 8c, individual values, B6 mice) was -0.0604 and 0.2531 and -0.1298 and -0.1953 and 0.1497 and 0.2996 and 0.2407 and -0.00533 and -0.09796 and 0.2025 and 0.1402. For the same substance, the “Preference Index” value ([1]; Fig. 8c, mean, B6 mice, n = 11 f-MKKFRW, 11 MKKFRW, 10 f-MGFFIS, 10 f-MEQQNK, FEU control -0.002) was 0.07, the “Preference Index” value ([1]; Fig. 8e, individual values, cGao +/-) was -0.2952 and -0.1477 and 0.0923 and 0.1621 and -0.0653 and -0.08718 and -0.2984 and 0.512 and -0.2293 and -0.2843 and -0.4122 and -0.3523 and the “Preference Index” value ([1]; Fig. 8e, individual values, cGao -/-) was -0.00407 and 0.301 and 0.1658 and 0.1525 and 0.9449 and 0.3984 and 0.4927 and 0.2412 and 0.4087 and 0.6592 and -0.3896 and -0.3365 and -0.3471. The “Preference Index” value ([1]; Fig. 8e, mean, cGao +/-, n = 13 f-MKKFRW, 12 MKKFRW, FEU control -0.0358) was -0.12, the “Preference Index” value ([1]; Fig. 8e, mean, cGao -/-, n = 13, FEU control 0.15) was 0.21 and the “Preference Index” value ([1]; Fig. 8f, individual values, Trpc2 +/-) was 0.2866 and 0.03638 and -0.02867 and 0.9217 and 0.4878 and -0.4504 and -0.342 and -0.3772 and -0.3362. The “Preference Index” value ([1]; Fig. 8f, individual values, Trpc2 -/-) was 1.085 and 1.60E-05 and 0.07163 and 0.2257 and 0.5213 and -0.3383 and -0.4081 and -0.0323, the “Preference Index” value ([1]; Fig. 8f, mean, Trpc2 +/-, n = 12 f-MKKFRW, 9 MKKFRW, FEU control -0.0531) was 0.022 and the “Preference Index” value ([1]; Fig. 8f, mean, Trpc2 -/-, n = 11 f-MKKFRW, 8 MKKFRW, FEU control -0.10) was 0.14. For the same substance, the “Preference (%)” value ([1]; Fig. 8g, ∆Fpr3-lacZ +/+ males, FEU/FEU control -5.85844) was 7.718%, the “Preference (%)” value ([1]; Fig. 8g, ∆Fpr3-lacZ -/- males, FEU/FEU control 2.58474) was 9.878% and the “Preference (%)” value ([1]; Fig. 8h, Trpc2 +/- males, FEU/FEU control 0.100694) was 6.911%. The “Preference (%)” value ([1]; Fig. 8h, Trpc2 -/- males, FEU/FEU control -3.21189) was -1.784%, the “Preference Index” value ([1]; Fig. 8d, individual values, ∆Fpr3-lacZ +/+) was -0.2521 and -0.1287 and 0.07074 and 0.3269 and 0.2942 and 0.3844 and the “Preference Index” value ([1]; Fig. 8d, individual values, ∆Fpr3-lacZ -/-) was -0.1393 and 0.3319 and 0.8558 and 1.088 and -0.03627 and 0.0259 and -0.07697 and -0.00886 and -0.09833 and -0.1976 and 0.3575 and 0.2784. For the same substance, the “Preference Index” value ([1]; Fig. 8d, mean, ∆Fpr3-lacZ +/+, n = 9 f-MKKFRW, 6 MKKFRW, FEU control -0.06) was 0.12, the “Preference Index” value ([1]; Fig. 8d, mean, ∆Fpr3-lacZ -/-, n = 12, FEU control 0.19) was 0.20 and the avoidance index ([1]; Trpc2 +/−) was 0.02 ± 0.16. The avoidance index ([1]; Trpc2 −/−) was 0.14 ± 0.17, the avoidance index ([1]; cGαo +/−) was −0.12 ± 0.08 and the avoidance index ([1]; cGαo −/−, n = 13) was 0.21 ± 0.11. It also gave an avoidance index ([1]; ∆Fpr3-lacZ +/+) of 0.12 ± 0.11 and an avoidance index ([1]; ∆Fpr3-lacZ −/−, n = 12) of 0.20 ± 0.12.

With f-MKKFRWVVL [MgrB nonapeptide] the Fpeak [3] was 0.64, the “Ca2+ responses in VSNs, in words” value [3] was “VSNs that recognised f-MKKFRW responded also” and the “Ca2+ response of f-MKKFRW-responsive VSN knobs” value [3] was 0.64 ± 0.45.

For W-peptide [reference compound], the “agonism at mouse Fpr3, in words” value [2] is listed as “agonists for mouse Fpr3”.

For “f-MLFYFS [signal peptide fragment identified as agonist for mouse Fpr3, reference compound]”, the “agonism at mouse Fpr3, in words” value ([2]; signal peptide fragments) is given as “agonists for mouse Fpr3”.

In the case of f-MLFYLA, the “agonism at mouse Fpr3, in words” value ([2]; signal peptide fragments) is given as “agonists for mouse Fpr3”.
